Measured values: patent publication US9708314B2, “Heterocyclic amide compound” (NISSAN CHEMICAL INDUSTRIES, LTD., priority 2013, dated 2017)

Assays:
Format in all cases: in vivo
Glycine max = experiment: Test Example 4: effect on crop by application to foliage (diluvial soil, plastic box); details: 320 g/ha; for effect on crop, c (Glycine max): application to foliage
Summary of the method: (§1)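 Seeds sown in sterilized diluvial soil, covered ~1.5 cm, grown 14 days in greenhouse at 25° C. to 30° C. Emulsion formulation diluted in water to set rate (g/ha) and sprayed onto stems and leaves. Effect scored visually 3 weeks later on 0–5 scale (5 = ≥90% herbicidal ratio, 0 = ≤5%).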

Triticum aestivum = experiment: as above; details: 320 g/ha; for effect on crop, e (Triticum aestivum): application to foliage
Summary of the method: as §1

Zea mays = experiment: as above; details: 320 g/ha; for effect on crop, b (Zea mays): application to foliage
Summary of the method: as §1

[1] = tested on: Beta vulgaris ssp. vulgaris; experiment: as above; details: 320 g/ha; for effect on crop, f (Beta vulgaris ssp. vulgaris): application to foliage
Summary of the method: as §1

[2] = tested on: directly sowed Oryza sativa; experiment: as above; details: 320 g/ha; for effect on crop, d (directly sowed Oryza sativa): application to foliage
Summary of the method: as §1

Brassica campestris L. = experiment: as above; details: 320 g/ha; for effect on crop, g (Brassica campestris L.): application to foliage
Summary of the method: as §1

Veronica persica = experiment: Test Example 4: herbicidal effect by application to foliage (diluvial soil, plastic box); details: 320 g/ha; for herbicidal effect, R (Veronica persica): application to foliage
Summary of the method: as §1

Chenopodium album = experiment: as above; details: 320 g/ha; for herbicidal effect, O (Chenopodium album): application to foliage
Summary of the method: as §1

Alopecurus myosuroides = experiment: as above; details: 320 g/ha; for herbicidal effect, J (Alopecurus myosuroides): application to foliage
Summary of the method: as §1

Avena fatua = experiment: as above; details: 320 g/ha; for herbicidal effect, I (Avena fatua): application to foliage
Summary of the method: as §1

Stellaria media = experiment: as above; details: 320 g/ha; for herbicidal effect, P (Stellaria media): application to foliage
Summary of the method: as §1

Setaria viridis = experiment: as above; details: 320 g/ha; for herbicidal effect, G (Setaria viridis): application to foliage
Summary of the method: as §1

Galium spurium = experiment: as above; details: 320 g/ha; for herbicidal effect, Q (Galium spurium): application to foliage
Summary of the method: as §1

[3] = tested on: Echinochloa crus-galli var. crus-galli; experiment: as above; details: 320 g/ha; for herbicidal effect, H (Echinochloa crus-galli var. crus-galli): application to foliage
Summary of the method: as §1

Apera spica-venti. = experiment: as above; details: 320 g/ha; for herbicidal effect, L (Apera spica-venti.): application to foliage
Summary of the method: as §1

Lolium multiflorum Lam. = experiment: as above; details: 320 g/ha; for herbicidal effect, K (Lolium multiflorum Lam.): application to foliage
Summary of the method: as §1

Abutilon theophrasti = experiment: as above; details: 320 g/ha; for herbicidal effect, M (Abutilon theophrasti): application to foliage
Summary of the method: as §1

Amaranthus retroflexus = experiment: as above; details: 320 g/ha; for herbicidal effect, N (Amaranthus retroflexus): application to foliage
Summary of the method: as §1

Digitaria ciliaris = experiment: as above; details: 320 g/ha; for herbicidal effect, F (Digitaria ciliaris): application to foliage
Summary of the method: as §1

[4] = tested on: directly sowed Oryza sativa; experiment: Test Example 3: effect on crop by application to foliage (Wagner pot, water depth 0.1-0.5 cm); details: Nineteenth Table; application to foliage; application herbicide amount 320 g/ha
Summary of the method: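 A small sprayer delivered the diluted emulsion uniformly to foliage at the chosen rate in g/ha, 14 days after sowing in Wagner pots held at 25–30 °C. Outcome: 0–5 herbicidal-ratio score read three weeks post-treatment.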

Structure (SMILES)	b (effect on crop grade) [4]	effect on crop, c (Glycine max) (Glycine max)	effect on crop, e (Triticum aestivum) (Triticum aestivum)	effect on crop, b (Zea mays) (Zea mays)	effect on crop, f (Beta vulgaris ssp. vulgaris) [1]	effect on crop, d (directly sowed Oryza sativa) [2]	effect on crop, g (Brassica campestris L.) (Brassica campestris L.)	herbicidal effect, R (Veronica persica) (Veronica persica)	herbicidal effect, O (Chenopodium album) (Chenopodium album)	herbicidal effect, J (Alopecurus myosuroides) (Alopecurus myosuroides)	herbicidal effect, I (Avena fatua) (Avena fatua)	herbicidal effect, P (Stellaria media) (Stellaria media)	herbicidal effect, G (Setaria viridis) (Setaria viridis)	herbicidal effect, Q (Galium spurium) (Galium spurium)	herbicidal effect, H (Echinochloa crus-galli var. crus-galli) [3]	herbicidal effect, L (Apera spica-venti.) (Apera spica-venti.)	herbicidal effect, K (Lolium multiflorum Lam.) (Lolium multiflorum Lam.)	herbicidal effect, M (Abutilon theophrasti) (Abutilon theophrasti)	herbicidal effect, N (Amaranthus retroflexus) (Amaranthus retroflexus)	herbicidal effect, F (Digitaria ciliaris) (Digitaria ciliaris)	also measured
Cc1cc(-c2nnc3c(C(=O)Nc4nnnn4C)ccc(C(F)(F)F)n23)n(C)n1 [2-062]	5 (Herbicidal ratio of 90% or more (almost completely withered))																				c (Glycine max) effect on crop grade (Glycine max; foliage application): 5 (Herbicidal ratio of 90% or more (almost completely withered)); e (Triticum aestivum) effect on crop grade (Triticum aestivum; foliage application): 4 (Herbicidal ratio of 70% or more and less than 90%); b (Zea mays) effect on crop grade (Zea mays; foliage application): 5 (Herbicidal ratio of 90% or more (almost completely withered)); f (Beta vulgaris ssp. vulgaris) effect on crop grade ([1]; foliage application): 5 (Herbicidal ratio of 90% or more (almost completely withered)); d (directly sowed Oryza sativa) effect on crop grade ([2]; foliage application): 5 (Herbicidal ratio of 90% or more (almost completely withered)); g (Brassica campestris L.) effect on crop grade (Brassica campestris L.; foliage application): 5 (Herbicidal ratio of 90% or more (almost completely withered)); R (Veronica persica) herbicidal effect grade (Veronica persica; foliage application): 5 (Herbicidal ratio of 90% or more (almost completely withered)); O (Chenopodium album) herbicidal effect grade (Chenopodium album; foliage application): 5 (Herbicidal ratio of 90% or more (almost completely withered)); J (Alopecurus myosuroides) herbicidal effect grade (Alopecurus myosuroides; foliage application): 4 (Herbicidal ratio of 70% or more and less than 90%); I (Avena fatua) herbicidal effect grade (Avena fatua; foliage application): 5 (Herbicidal ratio of 90% or more (almost completely withered)); P (Stellaria media) herbicidal effect grade (Stellaria media; foliage application): 5 (Herbicidal ratio of 90% or more (almost completely withered)); G (Setaria viridis) herbicidal effect grade (Setaria viridis; foliage application): 5 (Herbicidal ratio of 90% or more (almost completely withered)); Q (Galium spurium) herbicidal effect grade (Galium spurium; foliage application): 5 (Herbicidal ratio of 90% or more (almost completely withered)); H (Echinochloa crus-galli var. crus-galli) herbicidal effect grade ([3]; foliage application): 5 (Herbicidal ratio of 90% or more (almost completely withered)); L (Apera spica-venti.) herbicidal effect grade (Apera spica-venti.; foliage application): 5 (Herbicidal ratio of 90% or more (almost completely withered)); K (Lolium multiflorum Lam.) herbicidal effect grade (Lolium multiflorum Lam.; foliage application): 5 (Herbicidal ratio of 90% or more (almost completely withered)); M (Abutilon theophrasti) herbicidal effect grade (Abutilon theophrasti; foliage application): 5 (Herbicidal ratio of 90% or more (almost completely withered)); N (Amaranthus retroflexus) herbicidal effect grade (Amaranthus retroflexus; foliage application): 5 (Herbicidal ratio of 90% or more (almost completely withered)); F (Digitaria ciliaris) herbicidal effect grade (Digitaria ciliaris; foliage application): 5 (Herbicidal ratio of 90% or more (almost completely withered))
Cn1nnnc1NC(=O)c1ccc(C(F)(F)F)n2c(C3(C)CC3(Cl)Cl)nnc12 (centres unmarked) [2-110]	3 (Herbicidal ratio of 40% or more and less than 70%)	0 (Herbicidal ratio of 5% or less (almost no effect))	3 (Herbicidal ratio of 40% or more and less than 70%)	4 (Herbicidal ratio of 70% or more and less than 90%)	5 (Herbicidal ratio of 90% or more (almost completely withered))	4 (Herbicidal ratio of 70% or more and less than 90%)	4 (Herbicidal ratio of 70% or more and less than 90%)	5 (Herbicidal ratio of 90% or more (almost completely withered))	5 (Herbicidal ratio of 90% or more (almost completely withered))	2 (Herbicidal ratio of 20% or more and less than 40%)	3 (Herbicidal ratio of 40% or more and less than 70%)	5 (Herbicidal ratio of 90% or more (almost completely withered))	4 (Herbicidal ratio of 70% or more and less than 90%)	5 (Herbicidal ratio of 90% or more (almost completely withered))	5 (Herbicidal ratio of 90% or more (almost completely withered))	3 (Herbicidal ratio of 40% or more and less than 70%)	3 (Herbicidal ratio of 40% or more and less than 70%)	5 (Herbicidal ratio of 90% or more (almost completely withered))	5 (Herbicidal ratio of 90% or more (almost completely withered))	5 (Herbicidal ratio of 90% or more (almost completely withered))	
C#CCSc1nnc2c(C(=O)Nc3nnnn3C)ccc(C(F)(F)F)n12 [2-103]	1 (Herbicidal ratio of 5% or more and less than 20%)	0 (Herbicidal ratio of 5% or less (almost no effect))	0 (Herbicidal ratio of 5% or less (almost no effect))	2 (Herbicidal ratio of 20% or more and less than 40%)	5 (Herbicidal ratio of 90% or more (almost completely withered))	4 (Herbicidal ratio of 70% or more and less than 90%)	3 (Herbicidal ratio of 40% or more and less than 70%)	4 (Herbicidal ratio of 70% or more and less than 90%)	5 (Herbicidal ratio of 90% or more (almost completely withered))	0 (Herbicidal ratio of 5% or less (almost no effect))	1 (Herbicidal ratio of 5% or more and less than 20%)	5 (Herbicidal ratio of 90% or more (almost completely withered))	3 (Herbicidal ratio of 40% or more and less than 70%)	4 (Herbicidal ratio of 70% or more and less than 90%)	5 (Herbicidal ratio of 90% or more (almost completely withered))	2 (Herbicidal ratio of 20% or more and less than 40%)	1 (Herbicidal ratio of 5% or more and less than 20%)	4 (Herbicidal ratio of 70% or more and less than 90%)	5 (Herbicidal ratio of 90% or more (almost completely withered))	4 (Herbicidal ratio of 70% or more and less than 90%)	
CC(=O)OCc1nnc2c(C(=O)Nc3nnnn3C)ccc(C(F)(F)F)n12 [2-107]	4 (Herbicidal ratio of 70% or more and less than 90%)	0 (Herbicidal ratio of 5% or less (almost no effect))	0 (Herbicidal ratio of 5% or less (almost no effect))	3 (Herbicidal ratio of 40% or more and less than 70%)	5 (Herbicidal ratio of 90% or more (almost completely withered))	5 (Herbicidal ratio of 90% or more (almost completely withered))	4 (Herbicidal ratio of 70% or more and less than 90%)	5 (Herbicidal ratio of 90% or more (almost completely withered))	5 (Herbicidal ratio of 90% or more (almost completely withered))	0 (Herbicidal ratio of 5% or less (almost no effect))	1 (Herbicidal ratio of 5% or more and less than 20%)	5 (Herbicidal ratio of 90% or more (almost completely withered))	3 (Herbicidal ratio of 40% or more and less than 70%)	4 (Herbicidal ratio of 70% or more and less than 90%)	5 (Herbicidal ratio of 90% or more (almost completely withered))	0 (Herbicidal ratio of 5% or less (almost no effect))	0 (Herbicidal ratio of 5% or less (almost no effect))	5 (Herbicidal ratio of 90% or more (almost completely withered))	5 (Herbicidal ratio of 90% or more (almost completely withered))	5 (Herbicidal ratio of 90% or more (almost completely withered))	
